Reference: patent US10208033B2, “β-carboline, dihydro-β-carboline and tetrahydro-β-carboline alkaloid derivatives and preparation methods same and use in aspects of preventing and treating plant viruses, fungicides and insecticides” (NANKAI UNIVERSITY, priority 2013, dated 2019)
Structures can show the parent of a compound that is named as a salt.

Key:
[1] = test system: tobacco mosaic virus (TMV); assay: Anti-TMV in vitro effect (half-leaf soaking); assay type: cell-based, tobacco mosaic virus (host Nicotiana tabacum L.cv.Xanthi NN)
[2] = test system: tobacco mosaic virus (TMV); assay: Anti-TMV in vivo inactivation; set-up: species or system tobacco mosaic virus (host Nicotiana tabacum L.cv.Xanthi NN)
[3] = test system: tobacco mosaic virus (TMV); assay: Anti-TMV in vivo therapeutic effect; set-up: species or system tobacco mosaic virus (host Nicotiana tabacum L.cv.Xanthi NN)
[4] = test system: tobacco mosaic virus (TMV); assay: Anti-TMV in vivo protective effect; set-up: species or system tobacco mosaic virus (host Nicotiana tabacum L.cv.Xanthi NN)
cucumber fusarium wilt = assay: Fungicidal (bactericidal) activity in vitro, PDA colony diameter; assay type: cell-based; conditions: 50 mg/kg
Cercospora arachidicola = assay: as above; assay type: cell-based; conditions: 50 mg/kg
Macrophoma kawatsukai = assay: as above; assay type: cell-based; conditions: 50 mg/kg
Alternaria solani = assay: as above; assay type: cell-based; conditions: 50 mg/kg
Fusarium graminearumt = assay: microbe, parasite or virus in culture; assay type: cell-based; conditions: for Bactericidal activity (%) Fusarium graminearumt: 50 mg/kg
potato late blight = assay: microbe, parasite or virus in culture; assay type: cell-based
Sclerotinia scleotiorum = assay: Fungicidal (bactericidal) activity in vitro, PDA colony diameter; assay type: cell-based; conditions: 50 mg/kg
Botrytis cinerea = assay: as above; assay type: cell-based; conditions: 50 mg/kg
Rhizoctonia solani = assay: as above; assay type: cell-based; conditions: 50 mg/kg
Phytophthora capsici = assay: as above; assay type: cell-based; conditions: 50 mg/kg
Fusarium fujikuroi = assay: as above; assay type: cell-based; conditions: 50 mg/kg
Rhizoctonia cereali = assay: as above; assay type: cell-based; conditions: 50 mg/kg
Bipolaria maydis = assay: organism not typed; assay type: cell-based; conditions: for Bactericidal activity (%) Bipolaria maydis: 50 mg/kg
[5] = test system: Colletotrichum orbiculare; assay: Fungicidal (bactericidal) activity in vitro, PDA colony diameter; assay type: cell-based; conditions: 50 mg/kg
armyworms = assay type: in vivo; conditions: concentration 600 mg/kg
cotton bollworms = assay: whole plant or invertebrate; conditions: for Cotton bollworm Mortality (%): concentration 600 mg/kg
Protocol: Experimental method of cotton bollworms: feed and drug mixing method: measure 3 mL of prepared solution and add it to about 27 g of newly prepared feed, thereby obtaining needed concentration through dilution by 10 times.

mosquito larvae = assay: whole plant or invertebrate; conditions: for activity against culex pipiens larvae (in words): at 5 mg/kg
How it was run: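 Compound dissolved in acetone (or other solvent) to a 1000 ppm stock and diluted in water to 5 ppm. Ten Culex pipiens pallens larvae at the start of the fourth instar, laboratory-reared, added per beaker; solvent-only aqueous control.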

14 kinds of fungi = assay: Bactericidal activity, overall statements on Table 2; assay type: cell-based; conditions: Table 2, 50 mg/kg
Description: In vitro test method (Alternaria solani is taken for example. Alternatively, other fungi may be used): Inoculate Alternaria solani to PDA culture medium, culture it for 7 days, prepare […] bacteria plates from colony edge by a puncher, inoculate […] and drug-free PDA culture media, culture them for 4 days, measure colony diameter, compare with the control group and calculate the inhibition percentage of the drug.

corn borers [6] = conditions: concentration 600 mg/kg
[7] = test system: tobacco mosaic virus (TMV); assay: Anti-TMV activity, overall statements on Table 1; assay type: in vivo, tobacco mosaic virus (host Nicotiana tabacum L.cv.Xanthi NN); conditions: 100 μg/mL versus ningnanmycin at 100 μg/mL
[8] = test system: armyworms, cotton bollworms and corn borers; assay: Insecticidal activity, overall statements on Table 3; assay type: in vivo; conditions: Table 3, 600 mg/kg
corn borers [9] = assay: whole plant or invertebrate; conditions: read-out: Corn borer Mortality (%)
[10] = Culex pipiens, 24 h, read-out: Mosquito larvae Mortality (%)

SMILES: C[C@@H]1N[C@H](C(=O)NN=Cc2ccc(Cl)cc2)Cc2c1[nH]c1ccccc21 [Ic-5, (1S, 3S)—N′-(4-chlorobenzylidene)-1-methyl-2,3,4,9-tetrahydropyridino [3,4-b] indol-3-formylhydrazine]
- Relative inhibition rate (%) In vitro activity ([1]; treatment dose 100 μg/mL): 30.8%
- Relative inhibition rate (%) In vitro activity ([1]; treatment dose 500 μg/mL): 67.3%
- Relative inhibition rate (%) In vivo inactivation ([2]; treatment dose 100 μg/mL): 35.9%
- Relative inhibition rate (%) In vivo inactivation ([2]; treatment dose 500 μg/mL): 70.4%
- Relative inhibition rate (%) In vivo therapy ([3]; treatment dose 100 μg/mL): 29.2%
- Relative inhibition rate (%) In vivo therapy ([3]; treatment dose 500 μg/mL): 71.5%
- Relative inhibition rate (%) In vivo protection ([4]; treatment dose 100 μg/mL): 34.1%
- Relative inhibition rate (%) In vivo protection ([4]; treatment dose 500 μg/mL): 64.2%
- Bactericidal activity (%) Cucumber fusarium wilt (cucumber fusarium wilt): 61.5%
- Bactericidal activity (%) Cercospora arachidicola (Cercospora arachidicola): 76.5%
- Bactericidal activity (%) Macrophoma kawatsukai (Macrophoma kawatsukai): 97.2%
- Bactericidal activity (%) Alternaria solani (Alternaria solani): 55.0%
- Bactericidal activity (%) Fusarium graminearumt (Fusarium graminearumt): 75.9%
- Bactericidal activity (%) potato late blight (potato late blight): 80.0%
- Bactericidal activity (%) Sclerotinia scleotiorum (Sclerotinia scleotiorum): 88.2%
- Bactericidal activity (%) Botrytis cinerea (Botrytis cinerea): 59.1%
- Bactericidal activity (%) Rhizoctonia solani (Rhizoctonia solani): 81.6%
- Bactericidal activity (%) Phytophthora capsici (Phytophthora capsici): 81.6%
- Bactericidal activity (%) Fusarium fujikuroi (Fusarium fujikuroi): 64.3%
- Bactericidal activity (%) Rhizoctonia cereali (Rhizoctonia cereali): 94.1%
- Bactericidal activity (%) Bipolaria maydis (Bipolaria maydis): 68.0%
- Bactericidal activity (%) Colletotrichum orbiculare [5]: 77.8%
- Armyworm Mortality (%) (armyworms): 25%
- Cotton bollworm Mortality (%) (cotton bollworms): 25%
- Mosquito larvae Mortality (%) (mosquito larvae; concentration 10 mg/kg, 24 h): 50%
- bactericidal activity against fungi (in words) (14 kinds of fungi): very good bactericidal activity against various kinds of fungi
- Corn borer Mortality (%) (corn borers [6]): 20%

SMILES: C[C@@H]1N[C@H](C(=O)NN=Cc2ccc[nH]2)Cc2c1[nH]c1ccccc21 [Ic-19, (1S, 3S)—N′-(pyrrole-2-methylene)-1-methyl-2,3,4,9-tetrahydropyridino [3,4-b] indol-3-formylhydrazine]
- Relative inhibition rate (%) In vitro activity ([1]; treatment dose 100 μg/mL): 8.8%
- Relative inhibition rate (%) In vitro activity ([1]; treatment dose 500 μg/mL): 49.5%
- Relative inhibition rate (%) In vivo inactivation ([2]; treatment dose 100 μg/mL): 20.2%
- Relative inhibition rate (%) In vivo inactivation ([2]; treatment dose 500 μg/mL): 61.3%
- Relative inhibition rate (%) In vivo therapy ([3]; treatment dose 100 μg/mL): 27.8%
- Relative inhibition rate (%) In vivo therapy ([3]; treatment dose 500 μg/mL): 63.4%
- Relative inhibition rate (%) In vivo protection ([4]; treatment dose 100 μg/mL): 30%
- Relative inhibition rate (%) In vivo protection ([4]; treatment dose 500 μg/mL): 54.7%
- Bactericidal activity (%) Cucumber fusarium wilt (cucumber fusarium wilt): 23.1%
- Bactericidal activity (%) Cercospora arachidicola (Cercospora arachidicola): 23.5%
- Bactericidal activity (%) Macrophoma kawatsukai (Macrophoma kawatsukai): 97.2%
- Bactericidal activity (%) Alternaria solani (Alternaria solani): 15.0%
- Bactericidal activity (%) Fusarium graminearumt (Fusarium graminearumt): 41.4%
- Bactericidal activity (%) potato late blight (potato late blight): 24.0%
- Bactericidal activity (%) Sclerotinia scleotiorum (Sclerotinia scleotiorum): 58.8%
- Bactericidal activity (%) Botrytis cinerea (Botrytis cinerea): 22.7%
- Bactericidal activity (%) Rhizoctonia solani (Rhizoctonia solani): 32.9%
- Bactericidal activity (%) Phytophthora capsici (Phytophthora capsici): 42.1%
- Bactericidal activity (%) Fusarium fujikuroi (Fusarium fujikuroi): 14.3%
- Bactericidal activity (%) Rhizoctonia cereali (Rhizoctonia cereali): 74.5%
- Bactericidal activity (%) Bipolaria maydis (Bipolaria maydis): 28.0%
- Bactericidal activity (%) Colletotrichum orbiculare [5]: 29.6%
- Armyworm Mortality (%) (armyworms): 70%
- Cotton bollworm Mortality (%) (cotton bollworms): 50%
- activity against culex pipiens larvae (in words) (mosquito larvae): still show high activity
- Mosquito larvae Mortality (%) (mosquito larvae; concentration 5 mg/kg, 24 h): 80%
- Mosquito larvae Mortality (%) (mosquito larvae; concentration 10 mg/kg, 24 h): 100%
- anti-TMV activity compared with ningnanmycin [7]: equivalent to the activity of commercial variety ningnanmycin
- activity against armyworms, cotton bollworms and corn borers (in words) [8]: broad-spectrum activity
- Corn borer Mortality (%) (corn borers [6]): 60%

SMILES: CCOC(=O)[C@@H]1Cc2c([nH]c3ccccc23)[C@H](C)N1 [Ib-13, (1S, 3S)-1-methyl-2,3,4,9-tetrahydropyridino [3,4-b] indol-3-ethyl formate]
- inhibition at 100 µg/mL ([1]; Tobacco mosaic virus, treatment dose 100 μg/mL, read-out: Relative inhibition rate (%) In vitro activity): 21.8%
- inhibition at 500 µg/mL ([1]; Tobacco mosaic virus, treatment dose 500 μg/mL, read-out: Relative inhibition rate (%) In vitro activity): 46.5%
- inhibition at 100 µg/mL ([2]; Tobacco mosaic virus, treatment dose 100 μg/mL, read-out: Relative inhibition rate (%) In vivo inactivation): 25.7%
- inhibition at 500 µg/mL ([2]; Tobacco mosaic virus, treatment dose 500 μg/mL, read-out: Relative inhibition rate (%) In vivo inactivation): 50.4%
- inhibition at 100 µg/mL ([3]; Tobacco mosaic virus, treatment dose 100 μg/mL, read-out: Relative inhibition rate (%) In vivo therapy): 17.5%
- inhibition at 500 µg/mL ([3]; Tobacco mosaic virus, treatment dose 500 μg/mL, read-out: Relative inhibition rate (%) In vivo therapy): 43.9%
- inhibition at 100 µg/mL ([4]; Tobacco mosaic virus, treatment dose 100 μg/mL, read-out: Relative inhibition rate (%) In vivo protection): 18.6%
- inhibition at 500 µg/mL ([4]; Tobacco mosaic virus, treatment dose 500 μg/mL, read-out: Relative inhibition rate (%) In vivo protection): 47.9%
- inhibition of growth at 50 mg/kg (cucumber fusarium wilt; Fusarium, 96 h): 28.6%
- inhibition of growth at 50 mg/kg (Cercospora arachidicola; Mycosphaerella arachidis, 96 h): 50%
- inhibition at 50 mg/kg (Macrophoma kawatsukai): 29.4%
- inhibition of growth at 50 mg/kg (Alternaria solani; Alternaria solani, 96 h): 55.6%
- inhibition of growth at 50 mg/kg (Fusarium graminearumt; Fusarium, 96 h, read-out: Bactericidal activity (%) Fusarium graminearumt): 21.4%
- inhibition of growth at 50 mg/kg (potato late blight; Phytophthora infestans, 96 h, read-out: Bactericidal activity (%) potato late blight): 30%
- inhibition of growth at 50 mg/kg (Sclerotinia scleotiorum; Sclerotinia, 96 h): 68%
- inhibition of growth at 50 mg/kg (Botrytis cinerea; Botrytis cinerea, 96 h): 68.2%
- inhibition of growth at 50 mg/kg (Rhizoctonia solani; Rhizoctonia solani, 96 h): 33.9%
- inhibition of growth at 50 mg/kg (Phytophthora capsici; Phytophthora capsici, 96 h): 60.6%
- inhibition of growth at 50 mg/kg (Fusarium fujikuroi; Fusarium fujikuroi, 96 h): 42.9%
- inhibition of growth at 50 mg/kg (Rhizoctonia cereali; Rhizoctonia, 96 h): 59.4%
- inhibition at 50 mg/kg (Bipolaria maydis; read-out: Bactericidal activity (%) Bipolaria maydis): 26.3%
- inhibition of growth at 50 mg/kg ([5]; Colletotrichum orbiculare, 96 h): 38.1%
- Armyworm Mortality (%) (armyworms): 60%
- mortality at 600 mg/kg (cotton bollworms; Helicoverpa armigera, in Gossypium hirsutum, read-out: Cotton bollworm Mortality (%)): 30%
- mortality at 5 mg/kg (mosquito larvae; [10]): 60%
- mortality at 10 mg/kg (mosquito larvae; [10]): 100%
- activity against culex pipiens larvae (in words) (mosquito larvae): still show high activity
- anti-TMV activity compared with ningnanmycin [7]: equivalent to the activity of commercial variety ningnanmycin
- activity against armyworms, cotton bollworms and corn borers (in words) [8]: broad-spectrum activity
- mortality at 600 mg/kg (corn borers [9]): 55%
